Drawing on ChEMBL document CHEMBL6182948 (J Med Chem, 2025), this text covers inhibition, Ratio IC50 and IC50 for 30 molecules.

One data set deals with T1, CYP1B1 (Homo sapiens, UniProt Q16678).
T1 sequence (Q16678 whole entry): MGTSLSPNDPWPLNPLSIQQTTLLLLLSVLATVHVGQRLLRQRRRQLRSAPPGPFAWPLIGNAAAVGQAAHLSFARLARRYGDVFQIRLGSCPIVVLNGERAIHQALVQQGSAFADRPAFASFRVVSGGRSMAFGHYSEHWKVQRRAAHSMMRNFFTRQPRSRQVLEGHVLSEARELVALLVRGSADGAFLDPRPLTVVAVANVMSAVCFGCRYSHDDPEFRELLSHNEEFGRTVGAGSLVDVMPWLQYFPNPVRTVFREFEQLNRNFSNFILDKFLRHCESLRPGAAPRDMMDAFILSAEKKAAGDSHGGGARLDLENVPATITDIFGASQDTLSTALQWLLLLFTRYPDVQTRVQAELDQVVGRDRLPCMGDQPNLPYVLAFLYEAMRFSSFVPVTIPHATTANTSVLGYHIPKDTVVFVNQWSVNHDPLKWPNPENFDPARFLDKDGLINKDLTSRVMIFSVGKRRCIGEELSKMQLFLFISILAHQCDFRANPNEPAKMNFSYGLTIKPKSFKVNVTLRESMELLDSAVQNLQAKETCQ
The data set can be described thus: Inhibition of human recombinant CYP1B1 using 7-ethoxyresorufin as substrate at 100 uM incubated under dark condition for 30 mins in presence of NADPH by EROD fluorescence assay relative to control. Format: ADME. To be noted: recombinant CYP1B1, probe 7-ethoxyresorufin.

Data set [1] is filed under the species Homo sapiens. The data set can be described thus: Selectivity index, ratio of IC50 for human recombinant CYP1A1 to IC50 for human recombinant CYP1B1 using 7-ethoxyresorufin as substrate.
Data set [2] is filed under the species Homo sapiens. The data set can be described thus: Selectivity index, ratio of IC50 for human recombinant CYP1A2 to IC50 for human recombinant CYP1B1 using 7-ethoxyresorufin as substrate.
The next data set concerns the target T2, Cytochrome P450 1A1 (Homo sapiens, UniProt P04798).
T2 sequence (P04798 whole entry): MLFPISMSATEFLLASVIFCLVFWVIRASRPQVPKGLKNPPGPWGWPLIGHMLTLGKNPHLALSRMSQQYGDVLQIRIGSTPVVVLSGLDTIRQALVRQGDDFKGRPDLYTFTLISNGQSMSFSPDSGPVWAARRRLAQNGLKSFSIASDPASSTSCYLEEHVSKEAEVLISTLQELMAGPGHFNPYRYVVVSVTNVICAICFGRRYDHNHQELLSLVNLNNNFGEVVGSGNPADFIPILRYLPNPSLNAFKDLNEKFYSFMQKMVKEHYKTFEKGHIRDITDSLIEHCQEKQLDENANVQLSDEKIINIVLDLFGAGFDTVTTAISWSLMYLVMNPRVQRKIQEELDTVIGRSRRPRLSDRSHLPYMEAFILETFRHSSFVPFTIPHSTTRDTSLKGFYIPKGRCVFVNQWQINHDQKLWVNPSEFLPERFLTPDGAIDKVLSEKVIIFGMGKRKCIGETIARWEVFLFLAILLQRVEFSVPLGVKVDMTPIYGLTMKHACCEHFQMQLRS
The data set can be described thus: Inhibition of human recombinant CYP1A1 using 7-ethoxyresorufin as substrate incubated under dark condition for 15 mins in presence of NADPH by EROD fluorescence assay. Format: ADME.

Another data set addresses T3, Cytochrome P450 1B1 (Homo sapiens, UniProt Q16678).
T3 sequence (Q16678 whole entry): T1 sequence (Q16678 whole entry)
The data set can be described thus: Inhibition of human recombinant CYP1B1 using 7-ethoxyresorufin as substrate incubated under dark condition for 30 mins in presence of NADPH by EROD fluorescence assay. Format: ADME.

In a further data set the target is T4, Cytochrome P450 1A2 (Homo sapiens, UniProt P05177).
T4 sequence (P05177 whole entry): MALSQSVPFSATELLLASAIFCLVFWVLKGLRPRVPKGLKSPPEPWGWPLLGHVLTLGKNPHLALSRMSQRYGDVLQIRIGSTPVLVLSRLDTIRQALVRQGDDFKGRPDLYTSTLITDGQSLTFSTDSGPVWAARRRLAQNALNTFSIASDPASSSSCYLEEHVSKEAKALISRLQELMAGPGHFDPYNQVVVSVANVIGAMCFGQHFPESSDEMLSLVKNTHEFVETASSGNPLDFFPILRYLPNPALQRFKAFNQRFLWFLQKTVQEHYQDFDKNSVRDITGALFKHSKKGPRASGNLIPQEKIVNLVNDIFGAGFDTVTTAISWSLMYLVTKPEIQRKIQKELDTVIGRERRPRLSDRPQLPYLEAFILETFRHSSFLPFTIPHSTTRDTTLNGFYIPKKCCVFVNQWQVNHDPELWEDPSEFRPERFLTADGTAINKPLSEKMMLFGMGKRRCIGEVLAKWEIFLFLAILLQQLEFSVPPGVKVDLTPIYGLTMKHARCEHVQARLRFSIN
The data set can be described thus: Inhibition of human recombinant CYP1A2 using 7-ethoxyresorufin as substrate incubated under dark condition for 45 mins in presence of NADPH by EROD fluorescence assay. Format: ADME.

In general, inhibition refers to the drop in the measured response relative to a control, in per cent. A word on the IC50: it is the concentration at which inhibition is half-maximal.

As to `COc1ccc(OC)c(NC(=O)c2nc(-c3ccccc3)cs2)c1`, the inhibition at 0.5 h, 100 µM on CYP1B1 stood at 91.2%. The values for the Ratio IC50 in the data set listed under Homo sapiens [1] and in the data set filed under Homo sapiens [2] were 18.4 and 27.8, respectively. The IC50 at Cytochrome P450 1A1 amounted to 404 nM; at Cytochrome P450 1B1, 22 nM; at Cytochrome P450 1A2, 611 nM.
As for `O=C(Nc1ccc(OC(F)(F)F)cc1)c1nc(-c2ccccc2)cs1`, the inhibition at 0.5 h, 100 µM on CYP1B1 was 92.2%. Also, the Ratio IC50 turned out to be 28.6 in the data set filed under Homo sapiens [1] and 63.4 in the data set listed under Homo sapiens [2]. Moreover, the IC50 on Cytochrome P450 1A1 stood at 213 nM; on Cytochrome P450 1B1, 7.45 nM; at Cytochrome P450 1A2, 472 nM.
`O=C(Nc1ccc(N2CCNCC2)cc1)c1nc(-c2ccccc2)cs1`: the inhibition at 0.5 h, 100 µM on CYP1B1 is 8.7%.
For `O=C(Nc1ccc(Cl)cc1Cl)c1nc(-c2ccccc2)cs1`, the inhibition at 0.5 h, 100 µM at CYP1B1 was found to be 102%. For the same molecule, the Ratio IC50 in the data set filed under Homo sapiens [1] worked out at 70.3; in the data set listed under Homo sapiens [2], 137. The IC50 on Cytochrome P450 1A1 was 251 nM; at Cytochrome P450 1B1 it was 3.57 nM; on Cytochrome P450 1A2 it was 488 nM.
In the case of `O=C(Nc1ccc(I)cc1)c1nc(-c2ccccc2)cs1`, the inhibition at 0.5 h, 100 µM at CYP1B1 is 100%. The Ratio IC50 came out at 410 in the data set filed under Homo sapiens [1] and 377 in the data set filed under Homo sapiens [2]. For the same molecule, the IC50 at Cytochrome P450 1A1 turned out to be 164 nM; on Cytochrome P450 1B1, 0.4 nM; on Cytochrome P450 1A2, 151 nM.
Turning to `O=C(Nc1cccc(F)c1)c1nc(-c2ccccc2)cs1`, on CYP1B1, the inhibition at 0.5 h, 100 µM was determined as 82.2%. Besides, the Ratio IC50 in the data set filed under Homo sapiens [1] is 9; in the data set listed under Homo sapiens [2], 19.4. Moreover, the IC50 at Cytochrome P450 1A1 came to 215 nM; on Cytochrome P450 1B1 it was 23.9 nM; at Cytochrome P450 1A2, 465 nM.
In the case of `O=C(Nc1ccc(Cl)cc1)c1nc(-c2ccccc2)cs1`, the inhibition at 0.5 h, 100 µM at CYP1B1 worked out at 102%. Also, the results for the Ratio IC50 in the data set listed under Homo sapiens [1] and in the data set filed under Homo sapiens [2] were 180 and 327, respectively. In addition, the IC50 on Cytochrome P450 1A1 stood at 213 nM; at Cytochrome P450 1B1, 1.18 nM; on Cytochrome P450 1A2, 386 nM.
In the case of `N#Cc1ccc(NC(=O)c2nc(-c3ccccc3)cs2)cc1`, the inhibition at 0.5 h, 100 µM on CYP1B1 was found to be 99.3%. In addition, the Ratio IC50 was found to be 113 in the data set listed under Homo sapiens [1] and 73.4 in the data set filed under Homo sapiens [2]. Further, the IC50 on Cytochrome P450 1A1 amounted to 870 nM; at Cytochrome P450 1B1, 7.68 nM; at Cytochrome P450 1A2, 563 nM.
As to `COc1ccc(NC(=O)c2nc(-c3ccccc3)cs2)c(OC)c1`, the inhibition at 0.5 h, 100 µM at CYP1B1 stood at 89.3%. Moreover, the Ratio IC50 in the data set filed under Homo sapiens [1] amounted to 31.1. Moreover, the IC50 on Cytochrome P450 1A1 is 785 nM; on Cytochrome P450 1B1 it was 25.2 nM; on Cytochrome P450 1A2 it was 438 nM.
In the case of `O=C(Nc1ccc(N2CCOCC2)cc1)c1nc(-c2ccccc2)cs1`, the inhibition at 0.5 h, 100 µM at CYP1B1 is 20.5%.
Same read-out and setting: for `O=C(Nc1ccc(-c2ccccc2)cc1)c1nc(-c2ccccc2)cs1` the value was 21.2%.
Turning to `Cc1ccc(NC(=O)c2nc(-c3ccccc3)cs2)cc1`, at CYP1B1, the inhibition at 0.5 h, 100 µM came to 94.2%. For the same molecule, the Ratio IC50 in the data set filed under Homo sapiens [1] was 26.4; in the data set filed under Homo sapiens [2], 27.1. The IC50 on Cytochrome P450 1A1 came to 977 nM; on Cytochrome P450 1B1 it was 37 nM; at Cytochrome P450 1A2 it was 1000 nM.
Consider `NC(=O)c1ccc(NC(=O)c2nc(-c3ccccc3)cs2)cc1`, for which, at CYP1B1, the inhibition at 0.5 h, 100 µM came to 54.6%.
Consider `O=C(Nc1cc(Cl)ccc1Cl)c1nc(-c2ccccc2)cs1`, for which, on CYP1B1, the inhibition at 0.5 h, 100 µM amounted to 96.2%. Moreover, the Ratio IC50 was 20.5 in the data set filed under Homo sapiens [1] and 8 in the data set listed under Homo sapiens [2]. In addition, the IC50 at Cytochrome P450 1A1 stood at 208 nM; at Cytochrome P450 1B1 it was 10.1 nM; on Cytochrome P450 1A2 it was 80.9 nM.
As to `O=C(Nc1ccc(-n2ccnc2)cc1)c1nc(-c2ccccc2)cs1`, on CYP1B1, the inhibition at 0.5 h, 100 µM amounted to 102%. The values for the Ratio IC50 in the data set filed under Homo sapiens [1] and in the data set listed under Homo sapiens [2] were 7.2 and 1.6, respectively. For the same molecule, the IC50 was found to be 10.8 nM at Cytochrome P450 1A1, 1.49 nM on Cytochrome P450 1B1 and 2.4 nM on Cytochrome P450 1A2.
In the case of `O=C(Nc1ccccc1F)c1nc(-c2ccccc2)cs1`, the inhibition at 0.5 h, 100 µM at CYP1B1 is 69.6%.
Same read-out and setting: for `COc1cc(NC(=O)c2nc(-c3ccccc3)cs2)cc(OC)c1OC` the value was 62.8%; for `O=C(Nc1cccc(Cl)c1)c1nc(-c2ccccc2)cs1`, 77.4%.
Turning to `CCc1sc(C(=O)Nc2cc(Cl)cc(Cl)c2)nc1-c1ccc(F)cc1`, the Ratio IC50 was 2.2 in the data set filed under Homo sapiens [1] and greater than 990 in the data set listed under Homo sapiens [2]. Further, the IC50 at Cytochrome P450 1A1 was 226 nM; on Cytochrome P450 1B1, 101 nM; on Cytochrome P450 1A2, greater than 100000 nM.
The like results for `O=C(Nc1cc(Cl)cc(Cl)c1)c1nc(-c2ccc([N+](=O)[O-])cc2)cs1` were, in that order, greater than 3650, 1400, greater than 100000 nM, 27.4 nM and 38400 nM.
For `O=C(Nc1cc(Cl)cc(Cl)c1)c1nc(-c2ccc(Cl)cc2)cs1` the same measures were 266, 912, 386 nM, 1.45 nM and 1330 nM.
For `Cc1sc(C(=O)Nc2ccc(C(F)(F)F)cc2)nc1-c1cccc(Cl)c1` the same measures were 71.8, greater than 5320, 135 nM, 1.88 nM and greater than 10000 nM.
With `O=C(Nc1ccc(OC(F)F)cc1)c1nc(-c2cccc(Cl)c2)cs1`, the values for the Ratio IC50 in the data set listed under Homo sapiens [1] and in the data set filed under Homo sapiens [2] were 53.5 and 4500, respectively. Further, the IC50 was 55.7 nM at Cytochrome P450 1A1, 1.04 nM at Cytochrome P450 1B1 and 4690 nM on Cytochrome P450 1A2.
The like results for `CC(=O)Nc1ccc(-c2csc(C(=O)Nc3cc(Cl)cc(Cl)c3)n2)cc1` were, in that order, 0.7, greater than 413, 167 nM, 242 nM and greater than 100000 nM.
For `NC(=O)c1ccc(-c2csc(C(=O)Nc3ccc(C(F)(F)F)cc3)n2)cc1` the same measures were 170, greater than 12100, 141 nM, 0.83 nM and greater than 10000 nM.
For the molecule `O=C(Nc1cc(Cl)cc(Cl)c1)c1nc(-c2ccc(-c3ccccc3)cc2)cs1`, the Ratio IC50 in the data set filed under Homo sapiens [1] came out at 4.8; in the data set listed under Homo sapiens [2] it was 6.5. The IC50 on Cytochrome P450 1A1 was 9310 nM; on Cytochrome P450 1B1, 1950 nM; at Cytochrome P450 1A2, 12700 nM.
As to `Cc1sc(C(=O)Nc2cc(Cl)cc(Cl)c2)nc1-c1ccc(F)cc1`, the Ratio IC50 came to 55.4 in the data set filed under Homo sapiens [1] and 2920 in the data set filed under Homo sapiens [2]. Moreover, the values for the IC50 at Cytochrome P450 1A1, on Cytochrome P450 1B1 and on Cytochrome P450 1A2 were 69.2 nM, 1.25 nM and 3650 nM, respectively.
The like results for `O=C(Nc1ccc(C(F)(F)F)cc1)c1nc(-c2cccc(Cl)c2)cs1` were, in that order, 99.6, 1270, 52.8 nM, 0.53 nM and 670 nM.
The like results for `NC(=O)c1cccc(-c2csc(C(=O)Nc3ccc(C(F)(F)F)cc3)n2)c1` were, in that order, 20.2, 2640, 44.2 nM, 2.18 nM and 5770 nM.
The like results for `O=C(Nc1ccc(OC(F)F)cc1)c1nc(-c2cccc(F)c2)cs1` were, in that order, 7170, 34400, 143 nM, 0.02 nM and 688 nM.
